Laboratory results as given in US6710168B1, “Glycopeptide antibiotics, combinatorial libraries of glycopeptide antibiotics and methods of producing same” (The Trustees of the University of Princeton, priority 1999, dated 2004).
≈ marks a conversion by molar mass, not a printed value. Like-named read-outs stand apart in the source and are kept apart here.

What was measured:
Assay type in all cases: cell-based
[1] = system: Bacillus cereus (ATCC 11778); assay: MIC susceptibility test, microdilution with MTT readout; details: for MIC: Bacillus cereus, ATCC11778, read-out: MIC BC; for MIC BC: Bacillus ceres ATCC11778
In short: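 Bacillus cereus ATCC® 11778 susceptibility was measured by broth microdilution in 96-well microplates using Cation Adjusted Mueller-Hinton broth. Samples were diluted two-fold from 5 μg/mL over 12 steps. Each well combined 100 μL of cell suspension (10^6 CFU/mL) with 100 μL of antibiotic solution and was incubated at 37° C. for 24 h. Then 50 μL of MTT (1 mg/mL) was added for 30 min, and MIC (μg/mL) was read as the lowest concentration inhibiting growth.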

[2] = system: Enterococcus faecalis (ATCC 29212); assay: as above
In short: (§1)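 Broth microdilution in cation-adjusted Mueller-Hinton broth, 12-step two-fold series from 5 μg/mL to […], mixed 1:1 with 10^6 CFU/mL cell suspension and incubated 24 h at 37 °C. MTT (1 mg/mL solution) is then added for 30 min (S. aureus, MRSA) or 2 h (E. faecalis strains). MIC = lowest concentration inhibiting growth.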

[3] = system: Methicillin resistant Staphylococcus aureus (ATCC 33591); assay: as above; details: for MIC: ATCC 3359 / ATCC 33591 / MRSA, read-out: MIC MRSA
In short: as §1

[4] = system: Staphylococcus aureus (ATCC 29213); assay: as above
In short: as §1

[5] = system: gentamicin, streptmycin, vancomycin resistant Enterococcus faecalis (ATCC 51299); assay: microbe, parasite or virus in culture; details: for MIC: Enterococcus faecalis, ATCC51299, read-out: MIC VREF; for MIC VREF: Enterococcus faecalis ATCC51299, vancomycin resistance
In short: as §1

[6] = system: Enterococcus faecium CL5137, VanA; assay: MIC susceptibility test; details: for MIC: read-out: MIC CL5137
[7] = system: Enterococcus faecalis CL5244, VanB; assay: MIC susceptibility test; details: for MIC: read-out: MIC CL5244
In short: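 MTT-based broth microdilution in cation-adjusted Mueller-Hinton broth; two-fold 12-step dilutions […], inoculum 10^6 CFU/mL, 37° C for 24 h.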

[8] = Enterococcus faecalis ATCC29212, read-out: MIC EF
[9] = Staphylococcus aureus ATCC3359, Methicillin resistance
[10] = Staphylococcus aureus ATCC29213, read-out: MIC SA
[11] = Enterococcus faecium CL5137, VanA
[12] = Enterococcus faecalis CL5244, VanB
[13] = Enterococcus faecalis ATCC29212
[14] = Staphylococcus aureus ATCC29213

Row | Structure (SMILES) | MIC [1] [µg/mL] | MIC [2, 8] [µg/mL] | MIC [3, 9] [µg/mL] | MIC [4, 10] [µg/mL] | MIC [5] [µg/mL] | MIC [6, 11] [µg/mL] | MIC [7, 12] [µg/mL] | MIC BC [1] [µg/mL] | MIC EF [2, 13] [µg/mL] | MIC MRSA [3, 9] [µg/mL] | MIC SA [4, 14] [µg/mL] | MIC VREF [5] [µg/mL] | MIC CL5137 [6, 11] | MIC CL5244 [7, 12] [µg/mL] | MIC ([2]; Enterococcus faecalis, ATCC29212, read-out: MIC EF) [µg/mL] | MIC ([3]; Staphylococcus aureus) [µg/mL] | MIC ([4]; Staphylococcus aureus, ATCC29213, read-out: MIC SA) [µg/mL] | MIC ([6]; Enterococcus faecium) [µg/mL] | MIC ([7]; Enterococcus faecalis) [µg/mL]
1 | CCCCCCCCCCNC1(C)CC(OC2C(Oc3c4cc5cc3Oc3ccc(cc3Cl)[C@@H](O)[C@@H](NC(=O)[C@H](CC(C)C)NC)C(=O)N[C@@H](CC(N)=O)C(=O)N[C@H]5C(=O)NC3C(=O)N[C@H](C(=O)N[C@@H](C(=O)O)c5cc(O)cc(O)c5-c5cc3ccc5O)[C@H](O)c3ccc(c(Cl)c3)O4)OC(CSc3nnc(C)c(O)n3)C(O)C2O)OC(C)C1O (some centres unmarked) [LXXIX, N-Decylvancosamine-glucose-C6-2-thio-6-azathymine Vancomycin] | 0.63 (≈ 0.367 µM) | 0.32 (≈ 0.187 µM) | 1.3 (≈ 0.758 µM) | 2.5 (≈ 1.46 µM) | 0.63 (≈ 0.367 µM) | 25 (≈ 14.6 µM) | 0.6 (≈ 0.35 µM) |  |  |  |  |  |  |  |  |  |  |  | 
2 | C=C1N[C@@H]2C(=O)N[C@@H](C(=O)O)c3cc(O)cc(O)c3-c3cc(ccc3O)C1NC(=O)[C@@H]1NC(=O)[C@H](CC(N)=O)NC(=O)[C@H](NC(=O)[C@H](CC(C)C)NC)[C@H](O)c3ccc(c(Cl)c3)Oc3cc1cc(c3OC1OC(CSc3nc(-c4ccccc4)c(-c4ccccc4)o3)C(O)C(O)C1OC1CC(C)(N)C(O)C(C)O1)Oc1ccc(cc1Cl)[C@H]2O (some centres unmarked) [LXIX, Glucose-C6-2-thio-4,5-diphenyloxazole Vancomycin] | 1.3 (≈ 0.773 µM) | 0.24 (≈ 0.143 µM) | 2.5 (≈ 1.49 µM) | 1.9 (≈ 1.13 µM) | 0.32 (≈ 0.19 µM) | 50 (≈ 29.7 µM) | 0.6 (≈ 0.357 µM) |  |  |  |  |  |  |  |  |  |  |  | 
3 | CCCCCCCCCCNC1(C)CC(OC2C(Oc3c4cc5cc3Oc3ccc(cc3Cl)C(O)C3NC(=O)C(NC(=O)C5NC(=O)C(CC(N)=O)NC(=O)C(NC(=O)C(CC(C)C)NC)C(O)c5ccc(c(Cl)c5)O4)c4ccc(O)c(c4)-c4c(O)cc(O)cc4C(C(=O)O)NC3=O)OC(CO)C(O)C2O)OC(C)C1O (centres unmarked) [N-decyl vancosamine vancomycin, reference compound] |  |  |  |  |  |  |  | 0.32 (≈ 0.201 µM) | 0.16 (≈ 0.101 µM) | 0.48 (≈ 0.302 µM) | 0.63 (≈ 0.396 µM) | 0.32 (≈ 0.201 µM) | 25 µg/mL (≈ 15.7 µM) | 3.2 (≈ 2.01 µM) |  |  |  |  | 
4 | CN[C@@H](CC(C)C)C(=O)N[C@H]1C(=O)N[C@@H](CC(N)=O)C(=O)N[C@H]2C(=O)NC3C(=O)N[C@H](C(=O)N[C@@H](C(=O)O)c4cc(O)cc(O)c4-c4cc3ccc4O)[C@H](O)c3ccc(c(Cl)c3)Oc3cc2cc(c3OC2OC(CSc3nnnn3C)C(O)C(O)C2OC2CC(C)(N)C(O)C(C)O2)Oc2ccc(cc2Cl)[C@H]1O (some centres unmarked) [LVIII, Glucose-C6-5-thio-1-methyl-tetrazole Vancomycin] | 1.3 (≈ 0.84 µM) | 2.5 (≈ 1.62 µM) | 2.5 (≈ 1.62 µM) | 1.9 (≈ 1.23 µM) | 5 (≈ 3.23 µM) | > 50 | 50 (≈ 32.3 µM) |  |  |  |  |  |  |  |  |  |  |  | 
5 | CNC(CC(C)C)C(=O)NC1C(=O)NC(CC(N)=O)C(=O)NC2C(=O)NC3C(=O)NC(C(=O)NC(C(=O)O)c4cc(O)cc(O)c4-c4cc3ccc4O)C(O)c3ccc(c(Cl)c3)Oc3cc2cc(c3OC2OC(CO)C(O)C(O)C2OC2CC(C)(NCc3ccc(-c4ccc(Cl)cc4)cc3)C(O)C(C)O2)Oc2ccc(cc2Cl)C1O (centres unmarked) [N-4-(4-chlorophenyl)benzyl vancomycin, reference compound] |  |  |  |  |  |  |  | 0.08 (≈ 0.0485 µM) | 0.08 (≈ 0.0485 µM) | 0.08 (≈ 0.0485 µM) | 0.16 (≈ 0.097 µM) | 0.08 (≈ 0.0485 µM) | 13 µg/mL (≈ 7.88 µM) | 0.4 (≈ 0.242 µM) |  |  |  |  | 
6 | CN[C@H](CC(C)C)C(=O)N[C@H]1C(=O)N[C@@H](CC(N)=O)C(=O)N[C@H]2C(=O)N[C@H]3C(=O)N[C@H](C(=O)N[C@H](C(=O)O)c4cc(O)cc(O)c4-c4cc3ccc4O)[C@H](O)c3ccc(c(Cl)c3)Oc3cc2cc(c3OC2OC(CNC(=O)c3cnc4ccccc4n3)C(O)C(O)C2OC2CC(C)(NCc3ccc(-c4ccc(Cl)cc4)cc3)C(O)C(C)O2)Oc2ccc(cc2Cl)[C@H]1O (some centres unmarked) [LII, Glucose-C6-N-2-quinoxaloyl-vancosamine-N-4-(4-chlorophenyl)benzyl Vancomycin] | 1.9 (≈ 1.05 µM) |  |  |  | 0.16 (≈ 0.0886 µM) |  |  |  |  |  |  |  |  |  | 0.08 (≈ 0.0443 µM) | 5 (≈ 2.77 µM) | 5 (≈ 2.77 µM) | 3.2 (≈ 1.77 µM) | 0.2 (≈ 0.111 µM)
7 | CNC(CC(C)C)C(=O)NC1C(=O)NC(CC(N)=O)C(=O)NC2C(=O)NC3C(=O)NC(C(=O)NC(C(=O)O)c4cc(O)cc(O)c4-c4cc3ccc4O)C(O)c3ccc(c(Cl)c3)Oc3cc2cc(c3OC2OC(CNC(=O)c3cnc4ccccc4n3)C(O)C(O)C2OC2CC(C)(N)C(O)C(C)O2)Oc2ccc(cc2Cl)C1O (centres unmarked) [XXXVII, Glucose-C6-N-2-quinoxaloyl Vancomycin] |  |  |  |  |  |  |  | 0.32 (≈ 0.199 µM) | 0.32 (≈ 0.199 µM) | 0.63 (≈ 0.393 µM) | 0.32 (≈ 0.199 µM) | 0.32 (≈ 0.199 µM) | 50< μg/mL | 1.6 (≈ 0.997 µM) |  |  |  |  | 
8 | CN[C@@H](CC(C)C)C(=O)N[C@H]1C(=O)N[C@@H](CC(N)=O)C(=O)N[C@H]2C(=O)NC3C(=O)N[C@H](C(=O)N[C@@H](C(=O)O)c4cc(O)cc(O)c4-c4cc3ccc4O)[C@H](O)c3ccc(c(Cl)c3)Oc3cc2cc(c3OC2OC(CSc3nc4cc(Cl)ccc4s3)C(O)C(O)C2OC2CC(C)(N)C(O)C(C)O2)Oc2ccc(cc2Cl)[C@H]1O (some centres unmarked) [LXVI, Glucose-C6-2-thio-5-chlorobenzothiazole Vancomycin] | 0.16 (≈ 0.098 µM) | 0.24 (≈ 0.147 µM) | 1.3 (≈ 0.796 µM) | 0.63 (≈ 0.386 µM) | 0.32 (≈ 0.196 µM) | 50 (≈ 30.6 µM) | 0.4 (≈ 0.245 µM) |  |  |  |  |  |  |  |  |  |  |  | 
9 | CNC(CC(C)C)C(=O)NC1C(=O)NC(CC(N)=O)C(=O)NC2C(=O)NC3C(=O)NC(C(=O)NC(C(=O)O)c4cc(O)cc(O)c4-c4cc3ccc4O)C(O)c3ccc(c(Cl)c3)Oc3cc2cc(c3OC2OC(CN)C(O)C(O)C2OC2CC(C)(N)C(O)C(C)O2)Oc2ccc(cc2Cl)C1O (centres unmarked) [XLVII, Glucose-C6-amine Vancomycin] |  |  |  |  |  |  |  | 1.0 (≈ 0.69 µM) | 1.9 (≈ 1.31 µM) | 0.32 (≈ 0.221 µM) | 0.63 (≈ 0.435 µM) | 1 (≈ 0.69 µM) | 50< μg/mL | 25 (≈ 17.3 µM) |  |  |  |  | 
10 | CN[C@@H](CC(C)C)C(=O)N[C@H]1C(=O)N[C@@H](CC(N)=O)C(=O)N[C@H]2C(=O)NC3C(=O)N[C@H](C(=O)N[C@@H](C(=O)O)c4cc(O)cc(O)c4-c4cc3ccc4O)[C@H](O)c3ccc(c(Cl)c3)Oc3cc2cc(c3OC2OC(CSc3nnc(NN)n3N)C(O)C(O)C2OC2CC(C)(N)C(O)C(C)O2)Oc2ccc(cc2Cl)[C@H]1O (some centres unmarked) [LXXVII, Glucose-C6-5-thio-4-amino-3-hydrazino-1,2,4-triazole Vancomycin] | 0.63 (≈ 0.399 µM) | 0.63 (≈ 0.399 µM) | 1.3 (≈ 0.824 µM) | 1.3 (≈ 0.824 µM) | 1.3 (≈ 0.824 µM) | 63 (≈ 39.9 µM) | 3.2 (≈ 2.03 µM) |  |  |  |  |  |  |  |  |  |  |  | 
11 | CN[C@@H](CC(C)C)C(=O)N[C@H]1C(=O)N[C@@H](CC(N)=O)C(=O)N[C@H]2C(=O)NC3C(=O)N[C@H](C(=O)N[C@@H](C(=O)O)c4cc(O)cc(O)c4-c4cc3ccc4O)[C@H](O)c3ccc(c(Cl)c3)Oc3cc2cc(c3OC2OC(CSc3nnc(N)s3)C(O)C(O)C2OC2CC(C)(N)C(O)C(C)O2)Oc2ccc(cc2Cl)[C@H]1O (some centres unmarked) [LXXVI, Glucose-C6-2-thio-5-amino-1,3,4-thiadiazole Vancomycin] | 0.63 (≈ 0.403 µM) | 1.3 (≈ 0.831 µM) | 0.63 (≈ 0.403 µM) | 0.63 (≈ 0.403 µM) | > 5 | > 50 | 19 (≈ 12.1 µM) |  |  |  |  |  |  |  |  |  |  |  | 
